# Tests used:
# cutaneous sensory axons = test: Axon branch number in caudal fin (acetylated tubulin staining); format: in vivo, zebrafish; details: for axon branch number: 96 hr; for axon branches in the caudal fin: 96 hr paclitaxel
# Protocol: (§1) The stock solution was divided into 20-30 μl aliquots and stored at −20 °C until use (maximal 6 months). Immediately prior to use, paclitaxel was diluted in Ringer's solution and added to dechorionated larval zebrafish. The larval fish were placed individually or in small groups into wells of a 12-well plate containing the treatment solutions. The control group was 0.05% DMSO. Plates were incubated at 28.5 °C and protected from light. Treatment lengths are indicated in the Drawings, Description of the Drawings, and Examples where appropriate. […] EMD534085, Eg5 inhibitor (MedChemExpress, Cat. No. HY-15000) was diluted in 100% DMSO to make a 10 mM stock solution and stored at −20 °C. […] The solutions were exchanged every 48 hr.
# (§2) Larval fish were transferred into […] glass vials and fixed in 4% paraformaldehyde (PFA)/1× Phosphate-buffered saline (PBS) for 1.5 hr at room temperature, with gentle rocking. Following a 5-minute incubation in 1×PBS+0.1% Tween-20 (PBST), zebrafish were permeabilized in 1×PBS+0.1% Triton X-100 for 10-30 min. Larval fish were transferred into 2 ml reaction tubes and incubated in blocking buffer (1×PBST+5% BSA) for 30 min at room temperature, with rocking. Larval fish were further incubated overnight in antibody solution (Millipore Sigma, Cat. No. AB3201, 1:300 rabbit anti-GluTub; Sigma, Cat No. T6793, 1:500 mouse anti-acetylated tubulin) in blocking buffer at 4 °C, on a rotator. The next morning, larval fish were transferred into 6-well plates and washed 4×15 min in 1×PBST at room temperature, with rocking. This was followed by incubation in secondary antibody (goat anti-rabbit Cy5, Abcam, Cat. No. ab97077; goat anti-mouse Cy3, Abcam, Cat. No. ab97035) and 1:10,000 Hoechst 33342 (ThermoFisher Scientific, Cat. No. 62249, 20 mM solution) in blocking buffer for 1 hr at room temperature, with rocking. Fish were covered to avoid bleaching. Fish were washed for 4×15 min in 1×PBST at room temperature, with rocking, and immediately mounted for imaging on glass bottom petri dishes (Spectrum Laboratory Products, Cat. No. 750-10403-UE) using 1% agarose (Thermo Fisher Scientific, Cat. No. 16520050). A 1:200 dilution was used for mouse alpha-tubulin antibody (Proteintech, Cat. No. 66031-1) and a 1:1,000 dilution of donkey anti-mouse IgG Alexa488 (ThermoFisher Scientific, Cat. No. A-21202) for secondary detection. For Nox1 immunostaining, a 1:300 dilution of primary antibody (Anti-NOX1 Rabbit Polyclonal Antibody, Avantar, Cat. No. 102164-796) and a 1:1,000 dilution of secondary goat anti-rabbit Cy2 (Abcam, Cat. No. ab6940) antibody was used. Eg5 antibody (Abcam, Cat. No. 61199) was used at a 1:100 and secondary goat anti-rabbit Cy2 (Abcam, Cat. No. ab6940) at 1:1,000 dilution.
# Axon branch number quantifications were performed by drawing a 50 μm line across the dorsal, medial, and ventral caudal fin edge region at a distance of 100 μm parallel to the fin edge (which was determined to be the most reliable region to quantify distal branch numbers). Axons traversing this line were counted and averaged per treatment group. Axonal fluorescence measurements were taken using the Imaris Spots function by manually placing spots along the axon and using the fluorescence intensity profile measurements MatLab tool.
# Stretching was performed after 96 hr treatment, followed by 2 hr post-stretch fixation, and staining for detection of acetylated tubulin in axons.
# To further validate Eg5 as the pharmacological target of EMD534085 in axon regeneration, zebrafish injected with kif11 CRISPR oligo were also analyzed.
# [1] = test system: epidermal keratinocytes (detyrosinated microtubules); test: Hind paw pad skin GluTub/DAPI histology in mice; format: in vivo, mouse; details: 24 mg/kg paclitaxel i.p.
# Protocol: Paws and back skin were collected at predetermined time points, placed in 10% formalin, and stored overnight at 4 °C. Samples were embedded in paraffin and sectioned at 7 μm, deparaffinized, washed with PBS, and incubated at room temperature for 5 min in 0.1% Triton X-100 in PBS and then blocked for 30 min (5% BSA). Sections were incubated with primary antibody diluted in blocking solution, overnight at 4 °C in a humidity chamber. Following PBS washes, sections were incubated for 1 h at room temperature with a secondary antibody. Tissues were mounted and assessed for staining. Antibodies used were against detyrosinated tubulin Millipore AB3201, p-KIF11 Invitrogen PA5-38647, alpha-tubulin Proteintech 66031-1-Ig, mouse Alexa Fluor 488 Invitrogen A21202, and rabbit Alexa flour 546 Invitrogen A10040. DAPI was used for nuclei counterstaining.
# Immunofluorescence staining was performed with a widefield microscopy using a Plan-Apochromatix 100× objective lens (oil immersion, numerical aperture [NA]1.4), 20× and 10× objective lens on inverted Zeiss Axio Observer Z1 using AxioVision 4.8 software. Images were acquired using a monochrome Zeiss Axio Cam MRm CCD camera. Images were processed with the NIH Image J software.
# These mice were then sacrificed and the skin of the hind paw pad was fixed in 4% paraformaldehyde, followed by sectioning and staining with 1) anti-GluTub (to detect detyrosinated microtubules) and 2) DAPI to detect nuclei.
# [2] = test system: caudal fin keratinocytes (dfMTs); test: dfMT formation (detyrosinated fasciculated looped microtubules) in zebrafish caudal fin keratinocytes; format: in vivo
# Protocol: as §1, §2
# CRISPR oligos targeting kif11 were designed using the IDT CRISPR design tool (https://www.idtdna.com/site/order/designtool/index/CRISPR_CUSTOM). The oligo (5′-[…] (SEQ ID NO: 21) was designed to anneal within exon 5 of 23 exons total in zebrafish kif11 with expected mutations ~ position 270 bp in the sequenced region using the following primers for PCR amplification: Fwd 5′-[…]-3′ (SEQ ID NO: 22) and Rev 5′-[…]-3′ (SEQ ID NO: 23). The forward primer was used for sequencing and yielded deletions in transiently injected embryos, as shown in example below in which single zebrafish were sequenced (FIG. 10).
# The CRISPR oligo was injected using the Alt-R system (IDT, https://www.idtdna.com/pages/technology/crispr/crispr-genome-editing/Alt-R-systems/cas9), which has provided highly reliable and efficient zebrafish knockout results as used herein. The IDT-recommended protocol (below) was used for CRISPR oligo preparations. Fertilized eggs were injected ~15 minutes post fertilization with CRISPR oligos to ensure maximal efficiency.
# Cell counting in the caudal fin was performed in three 100 μm^2 boxes in the dorsal, medial and ventral caudal fin (~100 μm from the edge). […]
# [3] = alone or with EMD534085 20 mg/kg x3
smiles,measurement,setting,value
CN(C)CCNC(=O)NC[C@H]1CC[C@@H]2[C@H](O1)c1cc(C(F)(F)F)ccc1N[C@H]2c1ccccc1 [EMD534085],axon branch number,cutaneous sensory axons; EMD534085 alone,10.25±0.47 branches/50 μm
same,number of epidermal keratinocytes with dMT,[1]; [3],The increase was dampened when paclitaxel was injected with EMD534085
same,animals with dfMTs,[2]; 25 μM EMD534085 alone,0%
same,number of dfMT-harboring keratinocytes per animal,"[2]; EMD534085 alone, 96 hr",0±0 cells/animal
CC(=O)O[C@H]1C(=O)[C@@]2(C)[C@H]([C@H](OC(=O)c3ccccc3)[C@]3(O)C[C@H](OC(=O)[C@H](O)[C@@H](NC(=O)c4ccccc4)c4ccccc4)C(C)=C1C3(C)C)[C@]1(OC(C)=O)CO[C@@H]1C[C@@H]2O [paclitaxel],axon branch number,"cutaneous sensory axons; 100 nM paclitaxel, alone or with 48 hr EMD534085",9.86±0.43 branches/50 μm
same,axon branch number,"cutaneous sensory axons; 22 μM paclitaxel, alone or with EMD534085",7.54±0.56 branches/50 μm
same,axon branches in the caudal fin,cutaneous sensory axons; cyba−/− fish,no change was found within the cyba−/− group
same,axon degeneration after stretching,cutaneous sensory axons; paclitaxel-treated and stretched cyba−/− mutants,rescued in paclitaxel-treated and stretched cyba−/− mutants
same,axon branches in the caudal fin,cutaneous sensory axons; wildtype,a decrease in axon branches
same,GluTub fluorescence,[1],increased GluTub fluorescence
same,brittle skin / empty regions in the stratum spinosum,[1]; [3],brittle skin in the stratum spinosum
same,number of epidermal keratinocytes with dMT,[1]; [3],an increase with paclitaxel treatment
same,dfMT-positive keratinocytes,[2]; 100 nM paclitaxel,0.4±0.21 dfMT-positive keratinocytes/100 μm^2
same,animals with dfMTs,"[2]; 100 nM paclitaxel, alone or with 25 μM EMD534085",20%
same,number of dfMT-harboring keratinocytes per animal,"[2]; 100 nM paclitaxel, alone or with 25 μM EMD534085, 96 hr",0.4±0.21 cells/animal
same,animals with dfMT,"[2]; 22 μM paclitaxel, 48 hr",~ 45%
same,keratinocytes with dfMTs,"[2]; 22 μM paclitaxel, 48 hr",3.64±1.28 keratinocytes/100 μm^2
same,keratinocytes with dfMTs,"[2]; 22 μM paclitaxel, 96 hr",7.7±1.6 keratinocytes/100 μm^2
same,animals with dfMT,"[2]; 22 μM paclitaxel, 96 hr (FIG. 1I)",~ 90%
same,animals with dfMTs,"[2]; 22 μM paclitaxel, alone or with 25 μM EMD534085",65.22%
same,number of dfMT-harboring keratinocytes per animal,"[2]; 22 μM paclitaxel, alone or with 25 μM EMD534085, 96 hr",6.957±1.49 cells/animal
same,dfMT presence,[2]; 3 hr paclitaxel,never

# Source: patent publication US20260345584A1, “METHODS AND PHARMACEUTICAL COMPOSITIONS FOR TREATING CHEMOTHERAPY-INDUCED PERIPHERAL NEUROPATHY WITH EG5 INHIBITORS” (UNIVERSITY OF MIAMI, priority 2023, published 2026)
